In patent publication US11229623B2 (GlaxoSmithKline Intellectual Property (No.2) Limited, priority 2016, dated 2022):
Counter-ions that a name gives are not always drawn.

Target: T1, human TRPV4 (Homo sapiens, UniProt Q9HBA0)
T1 construct: expressed in transfected cells; host or cells: BHK/AC9 cells transduced with BacMam virus
Assay: FLIPR assay for hTRPV4 expressed in BHK cells: inhibition of Agonist Compound-induced calcium signal
Type: cell-based
Conditions: hTRPV4 in BHK/AC9 cells, FLIPR calcium signal, agonist at EC80; reported as range class; read-out: IC50
Summary of the method: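 BHK/AC9 cells transduced with BacMam human TRPV4 (MOI 78), plated 15,000 per well and cultured 24 h at 37° C. Loaded with 2 μM Fluo-4 AM plus 500 μM Brilliant Black in HBSS for 1-1.5 h at room temperature in the dark; intracellular calcium signal read by FLIPR fluorescence.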

T1 sequence (Q9HBA0 whole entry): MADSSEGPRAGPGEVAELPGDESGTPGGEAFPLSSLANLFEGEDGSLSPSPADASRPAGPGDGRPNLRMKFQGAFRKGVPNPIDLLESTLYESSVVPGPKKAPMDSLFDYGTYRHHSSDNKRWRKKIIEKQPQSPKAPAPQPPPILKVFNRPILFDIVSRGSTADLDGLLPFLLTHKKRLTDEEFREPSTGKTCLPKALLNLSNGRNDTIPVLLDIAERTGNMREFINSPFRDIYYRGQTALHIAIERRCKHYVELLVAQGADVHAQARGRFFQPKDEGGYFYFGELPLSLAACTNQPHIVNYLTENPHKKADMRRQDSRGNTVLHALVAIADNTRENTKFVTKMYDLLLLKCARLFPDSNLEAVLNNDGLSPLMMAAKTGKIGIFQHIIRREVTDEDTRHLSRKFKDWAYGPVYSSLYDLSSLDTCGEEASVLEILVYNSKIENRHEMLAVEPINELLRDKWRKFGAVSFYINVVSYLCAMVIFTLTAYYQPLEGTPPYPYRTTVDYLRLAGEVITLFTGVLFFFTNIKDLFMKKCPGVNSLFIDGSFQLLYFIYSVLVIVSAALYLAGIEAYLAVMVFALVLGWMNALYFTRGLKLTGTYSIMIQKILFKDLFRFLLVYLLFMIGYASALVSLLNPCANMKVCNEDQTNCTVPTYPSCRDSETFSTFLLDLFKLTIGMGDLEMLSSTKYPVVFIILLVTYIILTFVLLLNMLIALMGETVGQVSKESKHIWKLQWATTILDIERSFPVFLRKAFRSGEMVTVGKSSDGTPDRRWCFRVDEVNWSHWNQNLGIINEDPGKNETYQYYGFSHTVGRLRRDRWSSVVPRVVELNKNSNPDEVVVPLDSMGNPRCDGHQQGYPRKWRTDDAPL

Row | SMILES | IC50 [µM]
1 | C[C@@H](O)[C@]1(O)CN(S(=O)(=O)c2ccc(C(F)(F)F)nc2)C[C@@H]1Oc1ccc(C#N)c(F)c1 [Example 206, 2-fluoro-4-(((3S,4R)-4-hydroxy-4-((R)-1-hydroxyethyl)-1-((6-(trifluoromethyl)pyridin-3-yl)sulfonyl)pyrrolidin-3-yl)oxy)benzonitrile] | 0.01 to 0.1
2 | N#Cc1cc(OCc2ccccc2)c(O[C@H]2CN(S(=O)(=O)c3ccc(C(F)(F)F)cc3C#N)C[C@@]2(O)CO)cc1F [Example 163, 5-(benzyloxy)-4-(((3S,4R)-1-((2-cyano-4-(trifluoromethyl)phenyl)sulfonyl)-4-hydroxy-4-(hydroxymethyl)pyrrolidin-3-yl)oxy)-2-fluorobenzonitrile] | 0.0001 to 0.01
3 | CCCCOc1cc(C#N)ccc1O[C@H]1CN(S(=O)(=O)c2ccc(C(F)(F)F)cc2C#N)C[C@@]1(O)CO [Example 169, 2-(((3R,4S)-4-(2-butoxy-4-cyanophenoxy)-3-hydroxy-3-(hydroxymethyl)pyrrolidin-1-yl)sulfonyl)-5-(trifluoromethyl)benzonitrile] | 0.0001 to 0.01
4 | N#Cc1cc(Cl)ccc1S(=O)(=O)N1C[C@H](Oc2ccc(C(F)(F)F)cc2)[C@@](O)(CO)C1 [Example 152, 5-chloro-2-(((3S,4S)-3-hydroxy-3-(hydroxymethyl)-4-(4-(trifluoromethyl)phenoxy)pyrrolidin-1-yl)sulfonyl)benzonitrile] | 0.0001 to 0.01
5 | N#Cc1ccc(O[C@H]2CN(S(=O)(=O)c3ccc(OC(F)(F)F)cn3)C[C@@]2(O)CN)cc1F [Example 248, 4-(((3S,4S)-4-(aminomethyl)-4-hydroxy-1-((5-(trifluoromethoxy)pyridin-2-yl)sulfonyl)pyrrolidin-3-yl)oxy)-2-fluorobenzonitrile] | 0.01 to 0.1
6 | N#Cc1ccc(O[C@H]2CN(S(=O)(=O)c3ccc(F)cn3)C[C@@]2(O)CN)cc1F [Example 242, 4-(((3S,4S)-4-(aminomethyl)-1-((5-fluoropyridin-2-yl)sulfonyl)-4-hydroxpyrrolidin-3-yl)oxy)-2-fluorobenzonitrile, 2,2,2-trifluoroacetate] | 0.01 to 0.1
7 | O=S(=O)(c1ccc(Cl)cc1Cl)N1C[C@H](Oc2ccc(C(F)(F)F)nc2)[C@](O)(CO)C1 [Example 35, (3R,4S)-1-((2,4-dichlorophenyl)sulfonyl)-3-(hydroxymethyl)-4-((6-(trifluoromethyl)pyridin-3-yl)oxy)pyrrolidin-3-ol] | 0.01 to 0.1
8 | N#Cc1ccc(O[C@H]2CN(S(=O)(=O)c3ccc(C(F)(F)F)cc3C#N)C[C@@]2(O)CO)c(OCc2ccccc2)c1 [Example 171, 2-(((3R,4S)-4-(2-(benzyloxy)-4-cyanophenoxy)-3-hydroxy-3-(hydroxymethyl)pyrrolidin-1-yl)sulfonyl)-5-(trifluoromethyl)benzonitrile] | 0.0001 to 0.01
9 | N#Cc1ccc(O[C@H]2CN(S(=O)(=O)c3ccc(OCC(F)(F)F)nn3)C[C@@]2(O)CO)cc1F [Example 133, 2-fluoro-4-(((3S,4R)-4-hydroxy-4-(hydroxymethyl)-1-((6-(2,2,2-trifluoroethoxy)pyridazin-3-yl)sulfonyl)pyrrolidin-3-yl)oxy)benzonitrile] | 0.01 to 0.1

Other lines, results leading:

Row | IC50 [µM] | SMILES
10 | 0.0001 to 0.01 | N#Cc1ccc(O[C@H]2CN(S(=O)(=O)c3ccc(Cl)cc3C#N)C[C@]23CNC(=O)O3)cc1F [Example 255, 4-(((5R,9S)-7-((4-chloro-2-cyanophenyl)sulfonyl)-2-oxo-1-oxa-3,7-diazaspiro[4.4]nonan-9-yl)oxy)-2-fluorobenzonitrile]
11 | 0.01 to 0.1 | N#Cc1ccc(O[C@H]2CN(S(=O)(=O)c3ccccc3C#N)C[C@]2(O)CO)cc1F [Example 137, 4-(((3S,4S)-1-((2-cyanophenyl)sulfonyl)-4-hydroxy-4-(hydroxymethyl)pyrrolidin-3-yl)oxy)-2-fluorobenzonitrile]
12 | 0.0001 to 0.01 | COc1cc(C#N)c(F)cc1O[C@H]1CN(S(=O)(=O)c2ccc(C(F)(F)F)cc2C#N)C[C@@]1(O)CO [Example 158, 4-(((3S,4R)-1-((2-cyano-4-(trifluoromethyl)phenyl)sulfonyl)-4-hydroxy-4-(hydroxymethyl)pyrrolidin-3-yl)oxy)-2-fluoro-5-methoxybenzonitrile]
13 | 0.0001 to 0.01 | N#Cc1ccc(O[C@H]2CN(S(=O)(=O)c3ccc(C(F)(F)F)cc3C#N)C[C@@]2(O)CO)cc1 [Example 29, 2-(((3R,4S)-4-(4-cyanophenoxy)-3-hydroxy-3-(hydroxymethyl)pyrrolidin-1-yl)sulfonyl)-5-(trifluoromethyl)benzonitrile]
14 | 0.01 to 0.1 | N#Cc1ccc(O[C@H]2CN(S(=O)(=O)c3ccc(C(F)F)cc3)C[C@@]2(O)CO)cc1F [Example 98, 4-(((3S,4R)-1-((4-(difluoromethyl)phenyl)sulfonyl)-4-hydroxy-4-(hydroxymethyl)pyrrolidin-3-yl)oxy)-2-fluorobenzonitrile]
15 | 0.0001 to 0.01 | CCc1ccc(S(=O)(=O)N2C[C@H](Oc3ccc(C#N)c(F)c3)[C@](O)(CO)C2)c(C#N)c1 [Example 217, 4-(((3S,4R)-1-((2-cyano-4-ethylphenyl)sulfonyl)-4-hydroxy-4-(hydroxymethyl)pyrrolidin-3-yl)oxy)-2-fluorobenzonitrile]
16 | 0.0001 to 0.01 | CC#Cc1ccc(S(=O)(=O)N2C[C@H](Oc3ccc(C#N)c(F)c3)[C@](O)(CO)C2)nc1 [Example 227, 2-fluoro-4-(((3S,4R)-4-hydroxy-4-(hydroxymethyl)-1-((5-(prop-1-yn-1-yl)pyridin-2-yl)sulfonyl)pyrrolidin-3-yl)oxy)benzonitrile]
17 | 0.0001 to 0.01 | N#Cc1cc(F)ccc1S(=O)(=O)N1C[C@H](Oc2ccc(C(F)(F)F)cc2)[C@](O)(CO)C1 [Example 153, 5-fluoro-2-(((3R,4S)-3-hydroxy-3-(hydroxymethyl)-4-(4-(trifluoromethyl)phenoxy)pyrrolidin-1-yl)sulfonyl)benzonitrile]
18 | 0.0001 to 0.01 | N#Cc1cc(C(F)(F)F)ccc1S(=O)(=O)N1C[C@H](Oc2ccc(F)c(F)c2)[C@](O)(CO)C1 [Example 25, 2-(((3R,4S)-4-(3,4-difluorophenoxy)-3-hydroxy-3-(hydroxymethyl)pyrrolidin-1-yl)sulfonyl)-5-(trifluoromethyl)benzonitrile]
19 | 0.01 to 0.1 | N#Cc1ccc(O[C@H]2CN(S(=O)(=O)c3ccc(C(F)(F)F)cc3C#N)C[C@@]2(O)CO)cn1 [Example 69, 5-(((3S,4R)-1-((2-cyano-4-(trifluoromethyl)phenyl)sulfonyl)-4-hydroxy-4-(hydroxymethyl)pyrrolidin-3-yl)oxy)picolinonitrile]
20 | 0.0001 to 0.01 | N#Cc1ccc(O[C@H]2CN(S(=O)(=O)c3ccc(Cl)cc3C#N)C[C@]2(O)CN)cc1F [Example 235, 4-(((3S,4R)-4-(aminomethyl)-1-((4-chloro-2-cyanophenyl)sulfonyl)-4-hydroxypyrrolidin-3-yl)oxy)-2-fluorobenzonitrile, Hydrochloride]
21 | 0.0001 to 0.01 | CN1CCO[C@]2(C1)CN(S(=O)(=O)c1ccc(Cl)cc1C#N)C[C@@H]2Oc1ccc(C#N)c(F)c1 [Example 252, 4-(((4S,5R)-2-((4-chloro-2-cyanophenyl)sulfonyl)-9-methyl-6-oxa-2,9-diazaspiro[4.5]decan-4-yl)oxy)-2-fluorobenzonitrile]
22 | 0.01 to 0.1 | N#Cc1ccc(O[C@H]2CN(S(=O)(=O)c3ccc(C(F)(F)F)cn3)C[C@@]2(O)CO)cc1F [Example 84, 2-fluoro-4-(((3S,4R)-4-hydroxy-4-(hydroxymethyl)-1-((5-(trifluoromethyl)pyridin-2-yl)sulfonyl)pyrrolidin-3-yl)oxy)benzonitrile]
